Like-named read-outs stand apart in the source and are kept apart here.
How the values were obtained:
Assay type in all cases: cell-based
[1] = molecular target: T1, protein kinases (human kinome) (Homo sapiens, UniProt P29320)
T1 sequence (P29320 21-983): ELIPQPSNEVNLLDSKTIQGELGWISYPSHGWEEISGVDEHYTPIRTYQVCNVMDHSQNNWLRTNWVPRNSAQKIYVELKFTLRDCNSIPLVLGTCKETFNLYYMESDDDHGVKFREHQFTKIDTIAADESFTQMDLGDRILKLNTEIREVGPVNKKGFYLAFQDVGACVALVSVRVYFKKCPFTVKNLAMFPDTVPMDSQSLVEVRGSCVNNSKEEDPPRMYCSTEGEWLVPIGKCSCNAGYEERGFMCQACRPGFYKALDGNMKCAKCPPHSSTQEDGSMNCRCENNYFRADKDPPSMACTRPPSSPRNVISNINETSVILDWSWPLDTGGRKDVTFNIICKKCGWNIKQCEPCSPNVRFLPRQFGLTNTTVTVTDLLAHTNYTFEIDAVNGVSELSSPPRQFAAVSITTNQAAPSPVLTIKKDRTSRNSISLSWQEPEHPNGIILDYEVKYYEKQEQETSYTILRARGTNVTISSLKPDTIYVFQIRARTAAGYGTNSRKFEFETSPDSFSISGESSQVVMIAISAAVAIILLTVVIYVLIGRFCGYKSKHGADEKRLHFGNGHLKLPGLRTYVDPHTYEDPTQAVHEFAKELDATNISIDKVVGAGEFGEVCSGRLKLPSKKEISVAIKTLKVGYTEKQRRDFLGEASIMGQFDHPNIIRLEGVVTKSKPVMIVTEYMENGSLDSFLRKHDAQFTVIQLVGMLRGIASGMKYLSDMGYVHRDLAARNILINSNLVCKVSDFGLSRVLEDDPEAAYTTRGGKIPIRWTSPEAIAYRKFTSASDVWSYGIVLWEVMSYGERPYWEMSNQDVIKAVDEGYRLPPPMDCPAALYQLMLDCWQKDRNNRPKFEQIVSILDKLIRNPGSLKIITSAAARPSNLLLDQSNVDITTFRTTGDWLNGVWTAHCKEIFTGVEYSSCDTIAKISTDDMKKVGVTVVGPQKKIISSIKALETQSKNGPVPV

[2] = molecular target: protein kinases (human kinome) (Homo sapiens, UniProt P49674); conditions: CSNK1E P49674
[3] = molecular target: T2, protein kinases (human kinome) (Homo sapiens, UniProt Q8IVH8); conditions: for logFC: MAP4K3 Q8IVH8; for logFC MAP4K3: MAP4K3 Q81VH8
T2 sequence (Q8IVH8 1-894): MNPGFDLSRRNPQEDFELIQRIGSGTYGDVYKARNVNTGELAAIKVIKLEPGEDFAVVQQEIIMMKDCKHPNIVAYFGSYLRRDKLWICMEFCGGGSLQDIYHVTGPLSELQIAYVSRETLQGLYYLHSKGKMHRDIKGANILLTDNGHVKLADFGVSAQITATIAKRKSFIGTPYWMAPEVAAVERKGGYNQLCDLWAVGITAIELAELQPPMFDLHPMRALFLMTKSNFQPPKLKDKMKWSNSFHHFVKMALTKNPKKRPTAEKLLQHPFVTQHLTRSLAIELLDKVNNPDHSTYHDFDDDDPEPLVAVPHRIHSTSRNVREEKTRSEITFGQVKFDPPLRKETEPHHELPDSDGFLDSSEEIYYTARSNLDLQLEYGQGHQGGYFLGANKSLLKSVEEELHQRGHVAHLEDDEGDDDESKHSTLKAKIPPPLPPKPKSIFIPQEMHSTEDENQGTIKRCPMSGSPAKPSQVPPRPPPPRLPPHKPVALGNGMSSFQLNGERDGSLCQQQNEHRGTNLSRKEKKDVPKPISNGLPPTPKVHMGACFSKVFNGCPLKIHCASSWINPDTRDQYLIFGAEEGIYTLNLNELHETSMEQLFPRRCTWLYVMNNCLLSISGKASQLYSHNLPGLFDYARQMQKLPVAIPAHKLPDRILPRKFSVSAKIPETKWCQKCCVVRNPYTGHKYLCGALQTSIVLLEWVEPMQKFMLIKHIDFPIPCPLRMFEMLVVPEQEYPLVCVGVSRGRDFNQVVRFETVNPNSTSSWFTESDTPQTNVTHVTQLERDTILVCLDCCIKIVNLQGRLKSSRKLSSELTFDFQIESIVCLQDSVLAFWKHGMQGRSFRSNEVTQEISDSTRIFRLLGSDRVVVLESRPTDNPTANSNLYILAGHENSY

protein kinases (human kinome) (Homo sapiens, UniProt P49674), sequence (P49674 whole entry): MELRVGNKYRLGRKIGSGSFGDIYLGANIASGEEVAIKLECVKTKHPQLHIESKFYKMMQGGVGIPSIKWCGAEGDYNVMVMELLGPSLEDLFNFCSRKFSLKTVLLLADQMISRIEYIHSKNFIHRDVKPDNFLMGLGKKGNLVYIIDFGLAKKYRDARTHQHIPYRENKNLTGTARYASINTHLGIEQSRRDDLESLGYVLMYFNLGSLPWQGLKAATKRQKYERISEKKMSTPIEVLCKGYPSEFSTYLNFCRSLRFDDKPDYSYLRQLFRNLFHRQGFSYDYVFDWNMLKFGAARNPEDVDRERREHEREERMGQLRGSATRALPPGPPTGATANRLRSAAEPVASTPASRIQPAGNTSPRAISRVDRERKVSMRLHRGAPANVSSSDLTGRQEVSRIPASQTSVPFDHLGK

Cc1ccc(NC(=O)c2cccc(C(F)(F)F)c2)cc1N1Cc2cnc(Nc3ccc(N4CCN(Cc5cn(CCCCCOc6cccc7c6C(=O)N(C6CCC(=O)NC6=O)C7=O)nn5)CC4)nc3)nc2N(C)C1=O (centres unmarked) [DB0646, N-(3-(7-((6-(4-((1-(5-((2-(2,6-Dioxopiperidin-3-yl)-1,3-dioxoisoindolin-4-yl)oxy)pentyl)-1H-1,2,3-triazol-4-yl)methyl)piperazin-1-v)pyridin-3-yl)amino)-1-methyl-2-oxo-1,4-dihydropyrimido[4,5-d]pyrimidin-3(2H)-yl)-4-methylphenyl)-3-(trifluoromethyl)benzamide]
logFC EPHA3 ([1]; Accession P29320, experiment wp045, direction down): −0.5333 | logFC EPHA3 ([1]; Accession P29320, experiment wp103, direction down): −0.3715 | logFC EPHA3 ([1]; Accession P29320, experiment wp107, direction down): −0.4346 | logFC EPHA3 ([1]; Accession P29320, experiment wp117, direction down): −0.3587 | logFC EPHA3 ([1]; Accession P29320, experiment wp152, direction down): −0.3871 | logFC EPHA3 ([1]; Accession P29320, experiment wp160, 4 hr, direction down): −0.5814 | logFC EPHA3 ([1]; Accession P29320, experiment wp160, 8 hr, direction down): −0.5528 | logFC EPHA3 ([1]; EPHA3 (P29320), experiment wp045): −0.5333 | logFC EPHA3 ([1]; EPHA3 (P29320), experiment wp103): −0.3715 | logFC EPHA3 ([1]; EPHA3 (P29320), experiment wp107): −0.4346 | logFC EPHA3 ([1]; EPHA3 (P29320), experiment wp117): −0.3587 | logFC EPHA3 ([1]; EPHA3 (P29320), experiment wp152): −0.3871 | logFC EPHA3 ([1]; EPHA3 (P29320), experiment wp160, 4 hr): −0.5814 | logFC EPHA3 ([1]; EPHA3 (P29320), experiment wp160, 8 hr): −0.5528

Nc1ncc(-c2ccc(S(=O)(=O)N(CCCNC(=O)CCOCCOCCOCCOCCOCCNc3cccc4c3C(=O)N(C3CCC(=O)NC3=O)C4=O)C3CC3)cc2)cc1-c1ccc2c(c1)CCNC2=O (centres unmarked) [WH.10417.099]
logFC ([2]; experiment wp056): −1.591 | logFC CSNK1E ([2]; experiment wp056): −1.591 | logFC ([2]; experiment wp103): −1.306 | logFC CSNK1E ([2]; experiment wp103): −1.306 | logFC ([2]; experiment wp105): −0.8305 | logFC CSNK1E ([2]; experiment wp105): −0.8305 | logFC ([2]; experiment wp107): −2.192 | logFC CSNK1E ([2]; experiment wp107): −2.192 | logFC ([2]; experiment wp172): −1.164 | logFC CSNK1E ([2]; experiment wp172): −1.164

Nc1ncnc2c1c(-c1ccc(Oc3ccccc3)cc1)nn2[C@H]1CC[C@H](N2CCN(CCOCCNC(=O)CNc3cccc4c3C(=O)N(C3CCC(=O)NC3=O)C4=O)CC2)CC1 (some centres unmarked) [SB1.G.181]
logFC ([2]; experiment wp071): −1.189 | logFC CSNK1E ([2]; experiment wp071): −1.189

CC(C)S(=O)(=O)c1ccccc1Nc1nc(Nc2ccc(N3CCN(CCOCCOCCNC(=O)CNc4cccc5c4C(=O)N(C4CCC(=O)NC4=O)C5=O)CC3)cc2)ncc1Cl (centres unmarked) [TL12.186]
logFC ([3]; experiment wp131): −0.6275 | logFC ([3]; experiment wp137): −0.3997 | logFC MAP4K3 ([3]; experiment wp131): −0.6275 | logFC MAP4K3 ([3]; experiment wp137): −0.3997 | logFC ([2]; experiment wp137): −0.4411 | logFC CSNK1E ([2]; experiment wp137): −0.4411

Cc1ncsc1-c1ccc([C@H](C)NC(=O)[C@@H]2C[C@@H](O)CN2C(=O)[C@@H](NC(=O)CCOCCOCCN2CCN(c3ccc(Nc4ncc(Cl)c(Nc5ccccc5S(=O)(=O)C(C)C)n4)cc3)CC2)C(C)(C)C)cc1 [FMF.06.098.1]
logFC ([3]; experiment wp108): −0.814 | logFC ([3]; experiment wp114): −0.4146 | logFC ([3]; experiment wp131): −0.7898 | logFC MAP4K3 ([3]; experiment wp108): −0.814 | logFC MAP4K3 ([3]; experiment wp114): −0.4146 | logFC MAP4K3 ([3]; experiment wp131): −0.7898

Cc1ccc(NC(=O)c2cccc(C(F)(F)F)c2)cc1N1Cc2cnc(Nc3ccc(N4CCN(CCCCC(=O)N[C@H](C(=O)N5C[C@H](O)C[C@H]5C(=O)N[C@@H](C)c5ccc(-c6scnc6C)cc5)C(C)(C)C)CC4)nc3)nc2N(C)C1=O [DB1113]
logFC EPHA3 ([1]; Accession P29320, experiment wp168, direction down): −0.4182 | logFC EPHA3 ([1]; EPHA3 (P29320), experiment wp168): −0.4182 | logFC ([3]; experiment wp168): −1.385 | logFC MAP4K3 ([3]; experiment wp168): −1.385

CC(C)S(=O)(=O)c1ccccc1Nc1nc(Nc2ccc(N3CCN(CCOCCNC(=O)CNc4cccc5c4C(=O)N(C4CCC(=O)NC4=O)C5=O)CC3)cc2)ncc1Cl (centres unmarked) [SK.3.91]
logFC ([3]; experiment wp105): −0.571 | logFC ([3]; experiment wp107): −0.8456 | logFC ([3]; experiment wp133, 4 hr): −0.6321 | logFC ([3]; experiment wp172): −0.7962 | logFC MAP4K3 ([3]; experiment wp105): −0.571 | logFC MAP4K3 ([3]; experiment wp107): −0.8456 | logFC MAP4K3 ([3]; experiment wp133, 4 hr): −0.6321 | logFC MAP4K3 ([3]; experiment wp172): −0.7962

Cn1c(=O)c(-c2c(Cl)cccc2Cl)cc2cnc(Nc3ccc(OCCNC(=O)CCCCCCNC(=O)COc4cccc5c4C(=O)N(C4CCC(=O)NC4=O)C5=O)cc3)nc21 (centres unmarked) [SB1.G.192.1]
logFC EPHA3 ([1]; Accession P29320, experiment wp071, direction down): −1.175 | logFC EPHA3 ([1]; Accession P29320, experiment wp081, direction down): −1.027 | logFC EPHA3 ([1]; Accession P29320, experiment wp131, direction down): −1.318 | logFC EPHA3 ([1]; EPHA3 (P29320), experiment wp071): −1.175 | logFC EPHA3 ([1]; EPHA3 (P29320), experiment wp081): −1.027 | logFC EPHA3 ([1]; EPHA3 (P29320), experiment wp131): −1.318

From US20240269139A1, “COMPOUNDS FOR TARGETED PROTEIN DEGRADATION OF KINASES” (DANA-FARBER CANCER INSTITUTE, INC., priority 2020, published 2024)
